The subject of data set [1] is response to the pain in mice. Briefly: Hot Plate test (analgesic effect).
The subject of data set [2] is response to the pain in mice. The data set is described as follows: Tail Flick test (analgesic effect).
Setting [3] is: 20 mg/kg i.p., 30 min, as formates.
Where [4] appears, read: 20 mg/kg i.p., 60 min, as formates.
[5] abbreviates: 20 mg/kg i.p., 120 min, as formates.
Where [6] appears, read: 20 mg/kg i.p., 240 min, as formates.
Where [7] appears, read: 20 mg/kg i.p., 360 min, as formates.
Setting [8] is: 10 mg/kg i.p., 60 min, formula (I) compounds as formates.
Where [9] appears, read: 10 mg/kg i.p., 120 min, formula (I) compounds as formates.
Setting [10] is: 10 mg/kg i.p., 240 min, formula (I) compounds as formates.
Where [11] appears, read: 10 mg/kg i.p., 360 min, formula (I) compounds as formates.
The mark [12] stands for this setting: 10 mg/kg i.p., 30 min, formula (I) compounds as formates.

Each structure is given as a SMILES string.

Our source for the melting point and MPE % values is US8399457B2, “Pharmaceutical compounds” (Neuroscienze Pharmaness S.C. A.R.L., priority 2008, dated 2013).

On to `CCC(=O)N1CCC2CCC(C1)N2C/C=C(\C)c1ccc(Cl)c(Cl)c1` (stereo not shown) [I-Ab], for which the melting point was in the range of 188 to 189 °C.

On to `CCC(=O)N1C2CCC1CN(C/C=C(\C)c1ccccc1)CC2` (stereo not shown) [I-Ba], for which the melting point was in the range of 228 to 230 °C. In addition, the MPE % in data set [1] (setting [3]) amounted to 68.9 ± 7.2%. Besides, the MPE % in data set [1] (setting [4]) is 50.5 ± 11.3%. Moreover, the MPE % in data set [1] (setting [5]) is 7.0 ± 2.1%. Moreover, the MPE % in data set [1] (setting [6]) is given as 6.0 ± 2.1%. In addition, in data set [1] (setting [7]), the MPE % is on record as −4.0 ± 2.0%. Moreover, the MPE % in data set [2] (setting [3]) came out at 89.9 ± 7.0%. Further, the MPE % in data set [2] (setting [4]) turned out to be 88.5 ± 10.3%. The MPE % in data set [2] (setting [5]) was determined as 9.0 ± 2.5%. The MPE % in data set [2] (setting [6]) was found to be 2.0 ± 1.1%. Further, the MPE % in data set [2] (setting [7]) is −2.0 ± 1.0%.

With `CCC(=O)N1CCC2CCC(C1)N2CC=C(c1ccccc1)c1ccccc1` (stereo not shown) [I-Ad], the melting point was 176 to 177 °C.

The compound `CCC(=O)N1C2CCCC1CN(CC=C(c1ccccc1)c1ccccc1)CC2` (stereo not shown) [I-Dc] gave a melting point of 169 to 170 °C.

`CN1CC[C@]23c4c5ccc(O)c4O[C@H]2[C@@H](O)C=C[C@H]3[C@H]1C5` [Morphine, reference compound]: the MPE % in data set [2] (setting [8]) is listed as 60.5 ± 6.8%; in data set [2] (setting [9]), 39.6 ± 4.0%; in data set [2] (setting [10]), 19.1 ± 3.0%; in data set [2] (setting [11]), 6.1 ± 1.1%.

On to `CCC(=O)N1CCC2CCCC(C1)N2C/C=C(\C)c1ccccc1` (stereo not shown) [I-Ca], for which the melting point is 106 to 108 °C.

In turn, `CCC(=O)N1CCC2CCCC(C1)N2C/C=C(\C)c1ccc(Cl)c(Cl)c1` (stereo not shown) [I-Cb] displayed a melting point of 184 to 185 °C.

The compound `CCC(=O)N1CCC2CCCC(C1)N2CC=C(c1ccccc1)c1ccccc1` (stereo not shown) [I-Cc] gave a melting point of 137 to 139 °C. In addition, the MPE % in data set [1] (setting [3]) stood at 55.2 ± 10.5%. Moreover, the MPE % in data set [1] (setting [4]) is 40.9 ± 7.8%. In addition, the MPE % in data set [1] (setting [5]) was found to be 24.1 ± 7.3%. In data set [1] (setting [6]), the MPE % was 5.0 ± 4.0%. Also, in data set [1] (setting [7]), the MPE % was determined as 0.1 ± 1.1%. Further, the MPE % in data set [2] (setting [3]) is given as 80.2 ± 7.5%. For the same compound, in data set [2] (setting [4]), the MPE % was found to be 52.9 ± 8.1%. Further, in data set [2] (setting [5]), the MPE % amounted to 42.1 ± 8.3%. Further, the MPE % in data set [2] (setting [6]) is on record as 14.6 ± 3.0%. Further, in data set [2] (setting [7]), the MPE % is 0.0 ± 0.8%.

For the compound `CCC(=O)N1C2CCC1CN(CC=C(c1ccccc1)c1ccccc1)CC2` (stereo not shown) [I-Bd], the melting point was in the range of 184 to 186 °C.

`CCC(=O)N1CCC2CCC(C1)N2C/C=C(\C)c1ccccc1` (stereo not shown) [I-Aa] displayed a melting point of 230 to 232 °C. Moreover, in data set [1] (setting [12]), the MPE % was determined as 49.5 ± 10.5%. In addition, the MPE % in data set [1] (setting [8]) amounted to 25.1 ± 6.1%. Moreover, the MPE % in data set [1] (setting [9]) was found to be 6.0 ± 3.0%. For the same compound, in data set [1] (setting [10]), the MPE % worked out at 3.2 ± 3.0%. The MPE % in data set [1] (setting [11]) stood at 4.1 ± 1.0%. The MPE % in data set [2] (setting [12]) stood at 65.5 ± 6.5%. The MPE % in data set [2] (setting [8]) was determined as 20.1 ± 4.1%. Besides, the MPE % in data set [2] (setting [9]) came to 10.0 ± 1.0%. Also, the MPE % in data set [2] (setting [10]) is given as 3.1 ± 2.0%. For the same compound, the MPE % in data set [2] (setting [11]) was −3.0 ± 0.5%.

`CCC(=O)N1C2CCCC1CN(C/C=C(\C)c1ccc(Cl)c(Cl)c1)CC2` (stereo not shown) [I-Db] came in with a melting point of 175 to 176 °C.

`CCC(=O)N1C2CCC1CN(C/C=C(\C)c1ccc(Cl)c(Cl)c1)CC2` (stereo not shown) [I-Bb] returned a melting point of 186 to 188 °C.

Compound `CCC(=O)N1C2CCCC1CN(C/C=C(\C)c1ccccc1)CC2` (stereo not shown) [I-Da] displayed a melting point of 144 to 146 °C.
